# Laboratory results: patent US7511065B2, “Mixed lineage kinase modulators” (Eli Lilly and Company, priority 2002, dated 2009)
# Structures can show the parent of a compound that is named as a salt.
# Biological target: T1, MLK-7 (Homo sapiens, UniProt Q9NYL2)
# T1 construct: GST; His tag; made in house; host or cells: Sf9 insect cells (baculovirus, pVL1392)
# Assay: In vitro assay of purified MLK-7 kinase activity (33P transfer from ATP to myelin basic protein)
# Assay type: biochemical
# Conditions: recombinant GST-tagged MLK-7 at 1 nm, 30 uM ATP, 5 uM MBP substrate, 2 hours room temperature; read-out: MLK7 IC50
# Summary of the method: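 GST/His-tagged MLK-7 from Sf9 (baculovirus), 1 nM, with 5 uM MBP, 30 uM ATP plus 33P, 5 mM MgCl2, 2 mM DTT, 4% DMSO in 44 mM HEPES pH 7.4; 2 h at room temperature, stopped with phosphoric acid. Filter-bound 33P counted; IC50 for reduced phosphate transfer, Ki via Cheng-Prusoff.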
# T1 sequence (Q9NYL2 1-455 isoform Q9NYL2-2): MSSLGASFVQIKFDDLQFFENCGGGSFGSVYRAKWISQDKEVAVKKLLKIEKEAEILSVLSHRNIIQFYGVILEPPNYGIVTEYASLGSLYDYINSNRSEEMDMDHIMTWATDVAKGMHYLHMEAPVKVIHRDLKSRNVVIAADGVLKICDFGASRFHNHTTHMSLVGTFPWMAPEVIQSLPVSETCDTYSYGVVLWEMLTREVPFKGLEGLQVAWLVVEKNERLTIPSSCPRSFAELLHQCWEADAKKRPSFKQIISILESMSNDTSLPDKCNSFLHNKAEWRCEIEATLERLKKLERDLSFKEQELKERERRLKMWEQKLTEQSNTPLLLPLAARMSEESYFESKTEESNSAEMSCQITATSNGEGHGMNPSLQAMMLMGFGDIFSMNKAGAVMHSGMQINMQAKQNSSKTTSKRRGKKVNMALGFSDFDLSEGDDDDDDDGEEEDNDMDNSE
row,Structure (SMILES),IC50
1,"NC(=O)c1ccc(-c2ccc3c(-c4c(-c5ccccn5)nn5c4CCC5)ccnc3c2)cc1 [Example 141, 4-[4-(2-Pyridin-2-yl-5,6-dihydro-4H-pyrrolo[1,2-b]pyrazol-3-yl)-quinolin-7-yl]-benzamide]",≤ 100 nM
2,"O=C(O)CC[C@H](NC(=O)c1ccc(-c2ccc3c(-c4c(-c5ccccn5)nn5c4CCC5)ccnc3c2)cc1)C(=O)O [Example 146, 2(S)-{4-[4-(2-Pyridin-2-yl-5,6-dihydro-4H-pyrrolo[1,2-b]pyrazol-3-yl)-quinolin-7-yl]-benzoylamino}-pentanedioic Acid Trifluoroacetic Acid Salt]",≤ 100 nM

# Continued, values first:
row,IC50,Structure (SMILES)
1,≤ 100 nM,"NCCCC[C@H](NC(=O)c1ccc(-c2ccc3c(-c4c(-c5ccccn5)nn5c4CCC5)ccnc3c2)cc1)C(=O)O [Example 143, 6-Amino-2(S)-{4-[4-(2-pyridin-2-yl-5,6-dihydro-4H-pyrrolo[1,2-b]pyrazol-3-yl)-quinolin-7-yl]-benzoylamino}-hexanoic acid, Ditrifluoroacetic Acid Salt]"
2,≤ 100 nM,"CSC[C@@H](NC(=O)c1ccc(-c2ccc3c(-c4c(-c5ccccn5)nn5c4CCC5)ccnc3c2)cc1)C(=O)O [Example 145, 3-Methylsulfanyl-2(S)-{4-[4-(2-pyridin-2-yl-5,6-dihydro-4H-pyrrolo[1,2-b]pyrazol-3-yl)-quinolin-7-yl]-benzoylamino}-propionic Acid Trifluoroacetic Acid Salt]"
3,≤ 100 nM,"O=C(O)CCNC(=O)c1ccc(-c2ccc3c(-c4c(-c5ccccn5)nn5c4CCC5)ccnc3c2)cc1 [Example 147, 3-{4-[4-(2-Pyridin-2-yl-5,6-dihydro-4H-pyrrolo[1,2-b]pyrazol-3-yl)-quinolin-7-yl]-benzoylamino}-propionic Acid Trifluoroacetic Acid Salt]"
